Experiments:
NCIH 460 cells = test: Anti-cancer screen (MTT), NCIH460; format: cell-based; settings: Homo sapiens, NCI-H460, NCIH460 cells, 48 hours, MTT; for GI50: concentration to decrease % growth by 50%; for IC100: concentration to decrease % growth by 100%, read-out: NCIH460 TGI; for LC50: concentration to decrease % growth by 150%
Procedure, shortened: (§1)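 HCT116, NCIH460 and U251 cells (5000/well, DMEM + 10% FBS) seeded 24 h, then treated 48 h in triplicate at 0.01, 0.1, 1, 10, 100 μM; time-zero plate kept. MTT 3 h, formazan in DMSO read at 570 nm; GI50, TGI, LC50 derived.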

HCT 116 cells = test: Anti-cancer screen (MTT), HCT116; format: cell-based; settings: Homo sapiens, HCT-116, HCT116 cells, 48 hours, MTT; for GI50: concentration to decrease % growth by 50%; for IC100: concentration to decrease % growth by 100%, read-out: HCT116 TGI; for LC50: concentration to decrease % growth by 150%
Procedure, shortened: as §1

MDAMB231/U251 = test: Anti-cancer screen (MTT), MDAMB231/U251; format: cell-based; settings: MDAMB231/U251 cells, 48 hours; for GI50: concentration to decrease % growth by 50%; for IC100: concentration to decrease % growth by 100%, read-out: MDAMB231/U251 TGI; for LC50: concentration to decrease % growth by 150%
Procedure, shortened: as §1

[1] = test system: NCIH460, HCT116, MDAMB231/U251; test: Anti-cancer screen, mean GI50 over the cell lines; format: cell-based; settings: in µM
Procedure, shortened: as §1

[2] = test system: HDAC (Mouse Liver Extract); test: Histone Deacetylase (HDAC) Inhibition Assay using Boc-Lys (Ac)-AMC Substrate; format: biochemical; settings: mouse liver enzyme, NA = No Activity; for HDAC Inhibition 1 μM / HDAC Inhibition 10 μM: in % (unit assumed)
Procedure, shortened: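 Mouse liver extract was the HDAC source. It was preincubated with inhibitor for 5 min at 30° C, then incubated with Boc-Lys(Ac)-AMC substrate for 30 min at 30° C. Trypsin stop solution was added for a 20–30 min development step, and released AMC was read by fluorescence (ex 360/365, em 440/460 nm) with blank subtraction.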

SMILES	GI50 (NCIH 460 cells)	IC100 (NCIH 460 cells)	LC50 (NCIH 460 cells)	GI50 (HCT 116 cells)	IC100 (HCT 116 cells)	LC50 (HCT 116 cells)	GI50 (MDAMB231/U251)	IC100 (MDAMB231/U251)	LC50 (MDAMB231/U251)	Mean GI50 [1]	HDAC Inhibition 1 μM [2]	HDAC Inhibition 10 μM [2]	IC50 [2]
Cc1ccc2nc(NC(=O)CN3CCN(C(=O)CCCCCCC(=O)NO)CC3)sc2c1 [Example 35, 8-{4-[2-(6-Methyl-1,3-benzothiazol-2-ylamino)-2-oxoethyl]piperazin-1-yl}-N-hydroxy-8-oxo octanamide]	56 µM	100 µM	> 100 µM	8 µM	40 µM	92 µM	5 µM	45 µM	> 100 µM	23	68.3	96.93	
CC(=O)SCCCCC(=O)N1CCN(CC(=O)Nc2nc3ccc(C)cc3s2)CC1 [Example 11, 2-[4-(5-Thioacetylpentanoyl)piperazin-1-yl]-N-(6-methyl-1,3-benzothiazol-2-yl)acetamide]	0.3 µM	0.9 µM	8 µM	5 µM	40 µM	> 100 µM	1 µM	8 µM	> 100 µM	2.10	31.75	65.63	6.5 µM
O=C(CCCCCCC(=O)N1CCN(CC(=O)Nc2nc3ccccc3s2)CC1)NO [Example 29, 8-{4-[2-(1,3-Benzothiazol-2-ylamino)-2-oxoethyl]piperazin-1-yl}-N-hydroxy-8-oxo octanamide]	0.8 µM	93 µM	> 100 µM	30 µM	> 100 µM	> 100 µM	11 µM	55 µM	95 µM	13.9	61.41	97.00	0.76 µM
COC(=O)[C@H](CO)NC(=O)CCCCCCC(=O)N1CCN(CC(=O)Nc2nc3ccc(C)cc3s2)CC1 [Example 30]	42.5 µM	80.5 µM	> 100 µM	8 µM	51 µM	79 µM	35 µM	56 µM	82 µM	28.50		4.65	
CC(=O)SCCCCC(=O)N1CCN(CC(=O)Nc2ncc([N+](=O)[O-])s2)CC1 [Example 9]	> 100 µM	> 100 µM	> 100 µM	> 100 µM	> 100 µM	> 100 µM	> 100 µM	> 100 µM	> 100 µM	>100	3.39	23.65	
CC(=O)SCCCCCC(=O)N1CCN(C(=O)CNc2nc3ccc(C)cc3s2)CC1 [Example 3, N-{2-[4-(6-thioacetylhexanoyl)piperazin-1-yl]-2-oxoethyl}-6-methyl-1,3-benzo thiazol-2-amine]	> 100 µM	> 100 µM	> 100 µM	49 µM	99 µM	> 100 µM	48 µM	> 100 µM	> 100 µM	>100	42.40	86.74	
